{"source": "patent US4229204A", "about": "“Trifluoromethylphenyl isoxazolyl benzoates” (Monsanto Company, priority 1978, dated 1980); note: ranges in brackets are in %", "format_in_all_cases": "in vivo", "key": {"[1]": {"tested_on": "Morningglory", "experiment": "Post-emergent herbicidal test", "conditions": "4 WAT, 11.2 kg/h", "protocol": "(§1) The post-emergent tests were conducted as follows:\n(§2) The active ingredients are applied in spray form to two or three week old specimens of various plant species. The spray, a solution or wettable powder suspension containing the appropriate rate of active ingredient to give the desired test rate and a surfactant, is applied to the plants.\n(§3) The compounds were also tested by utilizing the above procedure on the following plant species: […]"}, "[2]": {"tested_on": "Barnyardgrass", "experiment": "Post-emergent herbicidal test", "conditions": "4 WAT, 11.2 kg/h", "protocol": "as §1, §2, §3"}, "[3]": {"tested_on": "Smartweed", "experiment": "Post-emergent herbicidal test", "conditions": "4 WAT, 11.2 kg/h", "protocol": "as §1, §2, §3"}, "[4]": {"tested_on": "Canada Thistle", "experiment": "Post-emergent herbicidal test", "conditions": "4 WAT, 11.2 kg/h", "protocol": "as §1, §2, §3"}, "[5]": {"tested_on": "Yellow Nutsedge", "experiment": "Post-emergent herbicidal test", "conditions": "4 WAT, 11.2 kg/h", "protocol": "as §1, §2, §3"}, "[6]": {"tested_on": "Johnsongrass", "experiment": "Post-emergent herbicidal test", "conditions": "4 WAT, 11.2 kg/h", "protocol": "as §1, §2, §3"}, "[7]": {"tested_on": "Downy Brome", "experiment": "Post-emergent herbicidal test", "conditions": "4 WAT, 11.2 kg/h", "protocol": "as §1, §2, §3"}, "[8]": {"tested_on": "Cocklebur", "experiment": "Post-emergent herbicidal test", "conditions": "4 WAT, 11.2 kg/h", "protocol": "as §1, §2, §3"}, "[9]": {"tested_on": "Quackgrass", "experiment": "Post-emergent herbicidal test", "conditions": "4 WAT, 11.2 kg/h", "protocol": "as §1, §2, §3"}, "[10]": {"tested_on": "Velvetleaf", "experiment": "Post-emergent herbicidal test", "conditions": "4 WAT, 11.2 kg/h", "protocol": "as §1, §2, §3"}, "[11]": {"tested_on": "Lambsquarters", "experiment": "Post-emergent herbicidal test", "conditions": "4 WAT, 11.2 kg/h", "protocol": "as §1, §2, §3"}, "[12]": {"tested_on": "Morningglory", "experiment": "Pre-emergent herbicidal test", "conditions": "4 WAT", "protocol": "(§4) The pre-emergent test was conducted as follows:\n(§5) A good grade of top soil was placed in aluminum pans and compacted to a depth of three-eighths to one-half inch from the top of the pan. On the top of the soil was placed a predetermined number of seeds or vegetative propagules of various plant species which were pressed into the soil surface. The soil required to level fill the pans after seeding or adding vegetative propagules was weighed into a pan. A known amount of the active ingredient applied in a solvent or as a wettable powder and the soil were thoroughly mixed, and used as a cover layer for prepared pans.\n(§6) The herbicidal rating was obtained by means of a fixed scale based on the percent injury of each plant species. The ratings are defined as follows: […]\nas §3"}, "[13]": {"tested_on": "Barnyardgrass", "experiment": "Pre-emergent herbicidal test", "conditions": "4 WAT", "protocol": "as §4, §5, §6, §3"}, "[14]": {"tested_on": "Smartweed", "experiment": "Pre-emergent herbicidal test", "conditions": "4 WAT", "protocol": "as §4, §5, §6, §3"}, "[15]": {"tested_on": "Canada Thistle", "experiment": "Pre-emergent herbicidal test", "conditions": "4 WAT, 11.2 kg/h", "protocol": "as §4, §5, §6, §3"}, "[16]": {"tested_on": "Yellow Nutsedge", "experiment": "Pre-emergent herbicidal test", "conditions": "4 WAT, 11.2 kg/h", "protocol": "as §4, §5, §6, §3"}, "[17]": {"tested_on": "Johnsongrass", "experiment": "Pre-emergent herbicidal test", "conditions": "4 WAT, 11.2 kg/h", "protocol": "as §4, §5, §6, §3"}, "[18]": {"tested_on": "Downy Brome", "experiment": "Pre-emergent herbicidal test", "conditions": "4 WAT", "protocol": "as §4, §5, §6, §3"}, "[19]": {"tested_on": "Cocklebur", "experiment": "Pre-emergent herbicidal test", "conditions": "4 WAT", "protocol": "as §4, §5, §6, §3"}, "[20]": {"tested_on": "Quackgrass", "experiment": "Pre-emergent herbicidal test", "conditions": "4 WAT, 11.2 kg/h", "protocol": "as §4, §5, §6, §3"}, "[21]": {"tested_on": "Velvetleaf", "experiment": "Pre-emergent herbicidal test", "conditions": "4 WAT", "protocol": "as §4, §5, §6, §3"}, "[22]": {"tested_on": "Lambsquarters", "experiment": "Pre-emergent herbicidal test", "conditions": "4 WAT", "protocol": "as §4, §5, §6, §3"}, "[23]": {"tested_on": "Wild Buckwheat", "experiment": "Pre-emergent herbicidal test", "conditions": "4 WAT", "protocol": "as §4, §5, §6"}, "[24]": {"tested_on": "Hemp Sesbania", "experiment": "Pre-emergent herbicidal test", "conditions": "4 WAT", "protocol": "as §4, §5, §6"}, "[25]": {"tested_on": "Rice", "experiment": "Pre-emergent herbicidal test", "conditions": "4 WAT", "protocol": "as §4, §5, §6"}, "[26]": {"tested_on": "Wheat", "experiment": "Pre-emergent herbicidal test", "conditions": "4 WAT", "protocol": "as §4, §5, §6"}, "[27]": {"tested_on": "Sugarbeet", "experiment": "Pre-emergent herbicidal test", "conditions": "4 WAT", "protocol": "as §4, §5, §6"}, "[28]": {"tested_on": "Panicum Spp.", "experiment": "Pre-emergent herbicidal test", "conditions": "4 WAT", "protocol": "as §4, §5, §6"}, "[29]": {"tested_on": "Crabgrass", "experiment": "Pre-emergent herbicidal test", "conditions": "4 WAT", "protocol": "as §4, §5, §6"}, "[30]": {"tested_on": "Soybean", "experiment": "Pre-emergent herbicidal test", "conditions": "4 WAT", "protocol": "as §4, §5, §6"}, "[31]": {"tested_on": "Sorghum", "experiment": "Pre-emergent herbicidal test", "conditions": "4 WAT", "protocol": "as §4, §5, §6"}}}
{"molecule": "O=C(O)c1ccccc1-c1cc(-c2cccc(C(F)(F)F)c2)no1", "note": "[Example 11, 2-[3-(3-Trifluoromethylphenyl)-5-Isoxazolyl]Benzoic Acid]", "values": [{"measurement": "herbicidal rating", "setting": "[1]", "value": "1 (25-49)"}, {"measurement": "herbicidal rating", "setting": "[2]", "value": "2 (50-74)"}, {"measurement": "herbicidal rating", "setting": "[3]", "value": "2 (50-74)"}, {"measurement": "herbicidal rating", "setting": "[4]", "value": "1 (25-49)"}, {"measurement": "herbicidal rating", "setting": "[5]", "value": "1 (25-49)"}, {"measurement": "herbicidal rating", "setting": "[6]", "value": "1 (25-49)"}, {"measurement": "herbicidal rating", "setting": "[7]", "value": "2 (50-74)"}, {"measurement": "herbicidal rating", "setting": "[8]", "value": "1 (25-49)"}, {"measurement": "herbicidal rating", "setting": "[9]", "value": "0 (0-24)"}, {"measurement": "herbicidal rating", "setting": "[10]", "value": "1 (25-49)"}, {"measurement": "herbicidal rating", "setting": "[11]", "value": "2 (50-74)"}, {"measurement": "herbicidal rating", "setting": "[12]; 1.12 kg/h", "value": "1 (25-49)"}, {"measurement": "herbicidal rating", "setting": "[12]; 5.60 kg/h", "value": "2 (50-74)"}, {"measurement": "herbicidal rating", "setting": "[12]; 11.2 kg/h", "value": "2 (50-74)"}, {"measurement": "herbicidal rating", "setting": "[13]; 1.12 kg/h", "value": "3 (75-100)"}, {"measurement": "herbicidal rating", "setting": "[13]; 5.60 kg/h", "value": "2 (50-74)"}, {"measurement": "herbicidal rating", "setting": "[13]; 11.2 kg/h", "value": "3 (75-100)"}, {"measurement": "herbicidal rating", "setting": "[14]; 1.12 kg/h", "value": "2 (50-74)"}, {"measurement": "herbicidal rating", "setting": "[14]; 5.60 kg/h", "value": "3 (75-100)"}, {"measurement": "herbicidal rating", "setting": "[14]; 11.2 kg/h", "value": "3 (75-100)"}, {"measurement": "herbicidal rating", "setting": "[15]", "value": "3 (75-100)"}, {"measurement": "herbicidal rating", "setting": "[16]", "value": "1 (25-49)"}, {"measurement": "herbicidal rating", "setting": "[17]", "value": "0 (0-24)"}, {"measurement": "herbicidal rating", "setting": "[18]; 1.12 kg/h", "value": "2 (50-74)"}, {"measurement": "herbicidal rating", "setting": "[18]; 5.60 kg/h", "value": "2 (50-74)"}, {"measurement": "herbicidal rating", "setting": "[18]; 11.2 kg/h", "value": "3 (75-100)"}, {"measurement": "herbicidal rating", "setting": "[19]; 1.12 kg/h", "value": "0 (0-24)"}, {"measurement": "herbicidal rating", "setting": "[19]; 5.60 kg/h", "value": "1 (25-49)"}, {"measurement": "herbicidal rating", "setting": "[19]; 11.2 kg/h", "value": "3 (75-100)"}, {"measurement": "herbicidal rating", "setting": "[20]", "value": "3 (75-100)"}, {"measurement": "herbicidal rating", "setting": "[21]; 1.12 kg/h", "value": "1 (25-49)"}, {"measurement": "herbicidal rating", "setting": "[21]; 5.60 kg/h", "value": "2 (50-74)"}, {"measurement": "herbicidal rating", "setting": "[21]; 11.2 kg/h", "value": "3 (75-100)"}, {"measurement": "herbicidal rating", "setting": "[22]; 1.12 kg/h", "value": "2 (50-74)"}, {"measurement": "herbicidal rating", "setting": "[22]; 5.60 kg/h", "value": "3 (75-100)"}, {"measurement": "herbicidal rating", "setting": "[22]; 11.2 kg/h", "value": "2 (50-74)"}, {"measurement": "herbicidal rating", "setting": "[23]; 1.12 kg/h", "value": "2 (50-74)"}, {"measurement": "herbicidal rating", "setting": "[23]; 5.60 kg/h", "value": "3 (75-100)"}, {"measurement": "herbicidal rating", "setting": "[24]; 1.12 kg/h", "value": "3 (75-100)"}, {"measurement": "herbicidal rating", "setting": "[24]; 5.60 kg/h", "value": "2 (50-74)"}, {"measurement": "herbicidal rating", "setting": "[25]; 1.12 kg/h", "value": "3 (75-100)"}, {"measurement": "herbicidal rating", "setting": "[25]; 5.60 kg/h", "value": "3 (75-100)"}, {"measurement": "herbicidal rating", "setting": "[26]; 1.12 kg/h", "value": "0 (0-24)"}, {"measurement": "herbicidal rating", "setting": "[26]; 5.60 kg/h", "value": "1 (25-49)"}, {"measurement": "herbicidal rating", "setting": "[27]; 1.12 kg/h", "value": "2 (50-74)"}, {"measurement": "herbicidal rating", "setting": "[27]; 5.60 kg/h", "value": "2 (50-74)"}, {"measurement": "herbicidal rating", "setting": "[28]; 1.12 kg/h", "value": "2 (50-74)"}, {"measurement": "herbicidal rating", "setting": "[28]; 5.60 kg/h", "value": "3 (75-100)"}, {"measurement": "herbicidal rating", "setting": "[29]; 1.12 kg/h", "value": "2 (50-74)"}, {"measurement": "herbicidal rating", "setting": "[29]; 5.60 kg/h", "value": "3 (75-100)"}, {"measurement": "herbicidal rating", "setting": "[30]; 1.12 kg/h", "value": "3 (75-100)"}, {"measurement": "herbicidal rating", "setting": "[30]; 5.60 kg/h", "value": "3 (75-100)"}, {"measurement": "herbicidal rating", "setting": "[31]; 1.12 kg/h", "value": "1 (25-49)"}, {"measurement": "herbicidal rating", "setting": "[31]; 5.60 kg/h", "value": "3 (75-100)"}]}
